Data reported in ChEMBL document CHEMBL1152499, “Novel l-adenosine analogs as cardioprotective agents” (2009).
Calls of active or inactive are those of the source. No cut-off for these calls is given here.

Tests used:
Heart [1] = experiment: Cardioprotective activity in isolated Langendorff ischemia-reperfused Swiss Webster mouse heart assessed as increase in functional recovery of contractility; format: tissue-based
Heart [2] = experiment: Cardioprotective activity in isolated Langendorff ischemia-reperfused Swiss Webster mouse heart assessed as total tissue necrotic area; format: functional
Heart [3] = experiment: Cardioprotective activity in isolated Langendorff ischemia-reperfused Swiss Webster mouse heart assessed as prolongation of time to ischemic contracture; format: functional

SMILES	Activity (Heart [1])	Activity (Heart [2])	Activity (Heart [3])
CN(C)c1ncnc2c1ncn2[C@H]1O[C@@H](CO)[C@H](N)[C@@H]1O	Active	19.1%	14.5 min
CNC(=O)[C@@H]1O[C@H](n2cnc3c(NC)ncnc32)[C@@H](O)[C@H]1N	inactive	inactive	inactive
Nc1ncnc2c1ncn2[C@@H]1O[C@H](CO)[C@@H](O)[C@H]1O [ADENOSINE]		11.5%	13.6 min
